Measured values reported in ChEMBL document CHEMBL1141943, “Synthesis and antitubercular activity of 2-hydroxy-aminoalkyl derivatives of diaryloxy methano phenanthrenes” (2005).
Converted amounts (≈) assume the structure as drawn.

Tests used:
[1] = tested on: Mycobacterium tuberculosis; test: Antitubercular activity against Mycobacterium tuberculosis H37Rv by agar microdilution technique; format: functional
[2] = tested on: Mycobacterium tuberculosis; test: Antitubercular activity against Mycobacterium tuberculosis H37Rv by standard BACTEC radiometric growth assay; format: functional

Compound | MIC [1] | MIC [2]
COc1ccc(C(c2ccc(OCC(O)CN3CCN(Cc4ccccc4)CC3)cc2)c2cc3ccccc3c3ccccc23)cc1 (stereo unspecified) | 25 µg/mL (≈ 40.1 µM) | 
NNC(=O)c1ccncc1 [ISONIAZID] | 0.05 µg/mL (≈ 0.365 µM) | 0.025 µg/mL (≈ 0.182 µM)
CCCCNCC(O)COc1ccc(C(c2ccc(OC)cc2)c2cc3ccccc3c3ccccc23)cc1 (stereo unspecified) | 6.25 µg/mL (≈ 12 µM) | 6.25 µg/mL (≈ 12 µM)
COc1ccc(C(c2ccc(OCC(O)CN3CCOCC3)cc2)c2cc3ccccc3c3ccccc23)cc1 (stereo unspecified) | 25 µg/mL (≈ 46.8 µM) | 
OC(COc1ccc(C(c2ccc(OCC(O)CN3CCCCC3)cc2)c2cc3ccccc3c3ccccc23)cc1)CN1CCCCC1 (stereo unspecified) | 6.25 µg/mL (≈ 9.49 µM) | 12.5 µg/mL (≈ 19 µM)
COc1ccc(C(c2ccc(OCC(O)CNC3CCCCC3)cc2)c2cc3ccccc3c3ccccc23)cc1 (stereo unspecified) | 12.5 µg/mL (≈ 22.9 µM) | 6.25 µg/mL (≈ 11.5 µM)
COc1ccc(C(c2ccc(OCC(O)CN3CCCC3)cc2)c2cc3ccccc3c3ccccc23)cc1 (stereo unspecified) | 12.5 µg/mL (≈ 24.1 µM) | 12.5 µg/mL (≈ 24.1 µM)
COc1ccc(C(c2ccc(OCC(O)CN3CCN(C)CC3)cc2)c2cc3ccccc3c3ccccc23)cc1 (stereo unspecified) | 12.5 µg/mL (≈ 22.9 µM) | 12.5 µg/mL (≈ 22.9 µM)
CCN(CC)CC(O)COc1ccc(C(c2ccc(OC)cc2)c2cc3ccccc3c3ccccc23)cc1 (stereo unspecified) | 6.25 µg/mL (≈ 12 µM) | 6.25 µg/mL (≈ 12 µM)
OC(COc1ccc(C(c2ccc(OCC(O)CN3CCCC3)cc2)c2cc3ccccc3c3ccccc23)cc1)CN1CCCC1 (stereo unspecified) | 12.5 µg/mL (≈ 19.8 µM) | 12.5 µg/mL (≈ 19.8 µM)
COc1ccc(C(c2ccc(OCC(O)CNC3CCCCCC3)cc2)c2cc3ccccc3c3ccccc23)cc1 (stereo unspecified) | 3.12 µg/mL (≈ 5.57 µM) | 3.12 µg/mL (≈ 5.57 µM)
OC(CNC1CCCCC1)COc1ccc(C(c2ccc(OCC(O)CNC3CCCCC3)cc2)c2cc3ccccc3c3ccccc23)cc1 (stereo unspecified) | 6.25 µg/mL (≈ 9.1 µM) | 12.5 µg/mL (≈ 18.2 µM)
COc1ccc(C(c2ccc(OCC(O)CN3CCCCC3)cc2)c2cc3ccccc3c3ccccc23)cc1 (stereo unspecified) | 12.5 µg/mL (≈ 23.5 µM) | 12.5 µg/mL (≈ 23.5 µM)
CN1CCN(CC(O)COc2ccc(C(c3ccc(OCC(O)CN4CCN(C)CC4)cc3)c3cc4ccccc4c4ccccc34)cc2)CC1 (stereo unspecified) | 12.5 µg/mL (≈ 18.1 µM) | 12.5 µg/mL (≈ 18.1 µM)
COc1ccc(C(c2ccc(OCC(O)CNC3CC3)cc2)c2cc3ccccc3c3ccccc23)cc1 (stereo unspecified) | 25 µg/mL (≈ 49.6 µM) | 25 µg/mL (≈ 49.6 µM)
CO[C@H]1/C=C/O[C@@]2(C)Oc3c(C)c(O)c4c(O)c(c(/C=N/N5CCN(C)CC5)c(O)c4c3C2=O)NC(=O)/C(C)=C\C=C\[C@H](C)[C@H](O)[C@@H](C)[C@@H](O)[C@@H](C)[C@H](OC(C)=O)[C@@H]1C [RIFAMPIN] | 0.1 µg/mL (≈ 0.122 µM) | 0.2 µg/mL (≈ 0.243 µM)
COc1ccc(C(c2ccc(OCC3CO3)cc2)c2cc3ccccc3c3ccccc23)cc1 (stereo unspecified) | 25 µg/mL (≈ 56 µM) | 
